US8129371B2, “Thienopyrimidine and pyrazolopyrimidine compounds and their use as mTOR kinase and PI3 kinase inhibitors” (Wyeth LLC, priority 2007, dated 2012)

Legend:
prostate line LNCap = experiment: In vitro cell culture growth assay (MTS), LNCap; assay type: cell-based; conditions: Homo sapiens, LNCaP, 72 h, LNCap cells, three days after drug treatment
Procedure, shortened: (§1)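 Viable cell density is assessed three days after inhibitor addition via MTS conversion, normalised to vehicle-treated cells.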

PI3K [1] = molecular target: T1, PI3K (Homo sapiens, UniProt P48736); experiment: Fluorescence polarization assay for PI3K; assay type: biochemical; conditions: PI3 Kinase γ isoform, fluorescence polarization; read-out: PI3 Kinase γ IC50
T1 construct: PI3 Kinase γ IC50; other: PI3 Kinase γ; other: PI3 Kinase γ isoform, fluorescence polarization
Procedure, shortened: (§2)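 PI3K was preincubated with compound (final DMSO 1%), and the reaction was started with PIP2/ATP substrate and run 30–60 min. It was stopped with a detector mix giving 10 nM red probe and 70 nM GST-GRP.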

PI3K [2] = molecular target: T2, PI3K (Homo sapiens, UniProt P42336); experiment: Fluorescence polarization assay for PI3K; assay type: biochemical; conditions: PI3 Kinase α isoform, fluorescence polarization; read-out: PI3 Kinase α IC50
T2 construct: PI3 Kinase α IC50; other: PI3 Kinase α; other: PI3 Kinase α isoform, fluorescence polarization
Procedure, shortened: as §2

breast line MDA468 = experiment: In vitro cell culture growth assay (MTS), MDA468; assay type: cell-based; conditions: Homo sapiens, 72 h, MDA468 cells, three days after drug treatment
Procedure, shortened: as §1

Human mTOR (FLAG-TOR) = molecular target: T3, Human mTOR (FLAG-TOR) (Homo sapiens, UniProt P42345); experiment: Human mTOR kinase assay with purified enzyme, DELFIA format; assay type: biochemical; conditions: purified human mTOR enzyme, DELFIA format
T3 construct: FLAG
Procedure, shortened: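 Purified FLAG-mTOR in HEPES pH 7.4 buffer with 10 mM MnCl2 was preincubated with inhibitor and reacted 2 h at room temperature with His6-S6K substrate, then stopped with EDTA/EGTA. Phospho-T389 S6K detected by DELFIA with Eu-labelled antibody (40 ng/mL) after plate capture; inhibition computed from signal.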

T2 sequence (P42336 whole entry, canonical isoform): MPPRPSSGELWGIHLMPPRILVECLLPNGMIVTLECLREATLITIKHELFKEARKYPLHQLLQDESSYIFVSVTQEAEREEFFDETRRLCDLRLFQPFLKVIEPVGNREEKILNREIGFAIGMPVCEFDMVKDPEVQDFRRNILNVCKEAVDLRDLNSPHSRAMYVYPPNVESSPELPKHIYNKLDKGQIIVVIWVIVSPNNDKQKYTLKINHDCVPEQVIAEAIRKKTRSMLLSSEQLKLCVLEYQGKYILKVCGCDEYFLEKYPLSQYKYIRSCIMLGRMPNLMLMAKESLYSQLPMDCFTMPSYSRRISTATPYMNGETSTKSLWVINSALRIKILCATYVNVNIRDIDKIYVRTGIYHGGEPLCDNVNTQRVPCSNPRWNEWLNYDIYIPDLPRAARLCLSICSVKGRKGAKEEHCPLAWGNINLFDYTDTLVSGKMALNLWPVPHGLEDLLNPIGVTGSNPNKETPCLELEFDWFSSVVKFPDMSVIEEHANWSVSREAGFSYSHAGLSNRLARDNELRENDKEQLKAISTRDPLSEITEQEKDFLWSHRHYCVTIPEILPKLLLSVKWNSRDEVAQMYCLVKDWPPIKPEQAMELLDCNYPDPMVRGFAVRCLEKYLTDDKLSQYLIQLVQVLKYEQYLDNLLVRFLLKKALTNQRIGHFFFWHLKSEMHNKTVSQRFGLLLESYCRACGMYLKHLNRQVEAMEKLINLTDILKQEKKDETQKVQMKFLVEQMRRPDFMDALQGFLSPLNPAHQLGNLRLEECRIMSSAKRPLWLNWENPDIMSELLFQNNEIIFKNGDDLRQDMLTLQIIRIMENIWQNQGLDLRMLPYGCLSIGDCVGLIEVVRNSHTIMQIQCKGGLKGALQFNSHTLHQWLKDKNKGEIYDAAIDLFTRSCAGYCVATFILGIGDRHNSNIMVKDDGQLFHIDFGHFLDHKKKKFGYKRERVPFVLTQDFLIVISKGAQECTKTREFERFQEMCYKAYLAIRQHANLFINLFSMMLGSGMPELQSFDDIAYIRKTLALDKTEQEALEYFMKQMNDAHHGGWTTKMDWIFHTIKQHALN
T1 sequence (P48736 whole entry, canonical isoform): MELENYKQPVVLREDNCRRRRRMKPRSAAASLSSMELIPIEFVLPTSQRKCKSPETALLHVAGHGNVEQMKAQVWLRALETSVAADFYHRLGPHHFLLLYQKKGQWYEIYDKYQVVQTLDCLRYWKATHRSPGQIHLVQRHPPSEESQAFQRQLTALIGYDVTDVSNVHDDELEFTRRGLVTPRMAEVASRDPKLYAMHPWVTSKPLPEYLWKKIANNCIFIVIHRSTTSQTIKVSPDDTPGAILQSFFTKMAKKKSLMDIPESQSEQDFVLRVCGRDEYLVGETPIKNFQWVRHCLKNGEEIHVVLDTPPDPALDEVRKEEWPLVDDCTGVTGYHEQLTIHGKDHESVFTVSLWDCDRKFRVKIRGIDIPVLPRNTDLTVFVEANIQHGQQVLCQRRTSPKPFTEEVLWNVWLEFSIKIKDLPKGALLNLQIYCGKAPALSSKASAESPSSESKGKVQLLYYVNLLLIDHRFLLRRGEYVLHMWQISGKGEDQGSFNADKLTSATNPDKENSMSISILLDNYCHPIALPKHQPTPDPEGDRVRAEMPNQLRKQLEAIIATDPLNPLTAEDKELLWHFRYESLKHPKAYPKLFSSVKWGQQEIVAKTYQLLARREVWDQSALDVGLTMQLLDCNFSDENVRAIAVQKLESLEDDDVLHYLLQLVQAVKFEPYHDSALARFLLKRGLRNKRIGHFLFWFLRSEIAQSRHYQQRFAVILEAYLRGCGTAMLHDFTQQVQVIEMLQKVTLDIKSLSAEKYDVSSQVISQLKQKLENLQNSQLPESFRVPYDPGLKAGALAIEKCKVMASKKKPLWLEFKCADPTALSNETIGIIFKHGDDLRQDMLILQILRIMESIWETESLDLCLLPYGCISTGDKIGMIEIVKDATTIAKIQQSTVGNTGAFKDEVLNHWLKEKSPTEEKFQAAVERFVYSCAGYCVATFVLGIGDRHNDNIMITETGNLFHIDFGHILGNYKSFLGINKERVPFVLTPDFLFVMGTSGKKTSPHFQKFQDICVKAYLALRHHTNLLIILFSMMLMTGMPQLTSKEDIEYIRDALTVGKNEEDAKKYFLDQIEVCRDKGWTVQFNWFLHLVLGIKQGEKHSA

SMILES	IC50 (prostate line LNCap)	IC50 (PI3K [1])	IC50 (PI3K [2])	IC50 (Human mTOR (FLAG-TOR))	IC50 (breast line MDA468)
O=C(Nc1ccc(-c2nc(N3C4CCC3COC4)c3cnn(CC(F)(F)F)c3n2)cc1)Nc1ccc(N2CCNCC2)cc1 [Example 318, 1-{4-[4-(3-oxa-8-azabicyclo[3.2.1]oct-8-yl)-1-(2,2,2-trifluoroethyl)-1H-pyrazolo[3,4-d]pyrimidin-6-yl]phenyl}-3-(4-piperazin-1-ylphenyl)urea]	< 1 nM	2270 nM	173 nM	0.19 nM	1 nM
CCNC(=O)Nc1ccc(-c2nc(N3CC4CCC(C3)O4)c3cnn(C(COC)COC)c3n2)cc1 [Example 320, 1-ethyl-3-(4-{1-[2-methoxy-1-(methoxymethyl)ethyl]-4-(8-oxa-3-azabicyclo[3.2.1]oct-3-yl)-1H-pyrazolo[3,4-d]pyrimidin-6-yl}phenyl)urea]	160 nM	> 10000 nM	1950 nM	9.1 nM	590 nM
COCC(COC)n1ncc2c(N3CC4CCC(C3)O4)nc(-c3ccc(NC(=O)NC4CC4)cc3)nc21 [Example 321, 1-cyclopropyl-3-(4-{1-[2-methoxy-1-(methoxymethyl)ethyl]-4-(8-oxa-3-azabicyclo[3.2.1]oct-3-yl)-1H-pyrazolo[3,4-d]pyrimidin-6-yl}phenyl)urea]	170 nM	> 10000 nM	3810 nM	10.4 nM	1050 nM
COCC(COC)n1ncc2c(N3CC4CCC(C3)O4)nc(-c3ccc(NC(=O)NCCO)cc3)nc21 [Example 322, 1-(2-hydroxyethyl)-3-(4-{1-[2-methoxy-1-(methoxymethyl)ethyl]-4-(8-oxa-3-azabicyclo[3.2.1]oct-3-yl)-1H-pyrazolo[3,4-d]pyrimidin-6-yl}phenyl)urea]	1000 nM	> 10000 nM	1250 nM	6.45 nM	2800 nM
COCC(COC)n1ncc2c(N3CC4CCC(C3)O4)nc(-c3ccc(NC(=O)OC)cc3)nc21 [Example 328, methyl (4-{1-[2-methoxy-1-(methoxymethyl)ethyl]-4-(8-oxa-3-azabicyclo[3.2.1]oct-3-yl)-1H-pyrazolo[3,4-d]pyrimidin-6-yl}phenyl)carbamate]	2350 nM	> 10000 nM	5770 nM	125 nM	9200 nM
CN1CCN(C2CCC(n3ncc4c(N5CC6CCC(C5)O6)nc(-c5ccc(NC(=O)Nc6cccnc6)cc5)nc43)CC2)CC1 (centres unmarked) [Example 330, 1-(4-{1-[4-(4-methylpiperazin-1-yl)cyclohexyl]-4-(8-oxa-3-azabicyclo[3.2.1]oct-3-yl)-1H-pyrazolo[3,4-d]pyrimidin-6-yl}phenyl)-3-pyridin-3-ylurea]	7 nM	1850 nM	238 nM	0.405 nM	60 nM
CNC(=O)Nc1ccc(-c2nc(N3CC4CCC(C3)O4)c3cnn(C4CCC(NN(C)C)CC4)c3n2)cc1 (centres unmarked) [Example 333, 1-(4-{1-[4-(2,2-dimethylhydrazino)cyclohexyl]-4-(8-oxa-3-azabicyclo[3.2.1]oct-3-yl)-1H-pyrazolo[3,4-d]pyrimidin-6-yl}phenyl)-3-methylurea]	68 nM	4590 nM	276 nM	0.58 nM	380 nM
CNC(=O)Nc1ccc(-c2nc(N3CC4CCC(C3)O4)c3cnn(C4CCC(NCCO)CC4)c3n2)cc1 (centres unmarked) [Example 334, 1-{4-[1-{4-[(2-hydroxyethyl)amino]cyclohexyl}-4-(8-oxa-3-azabicyclo[3.2.1]oct-3-yl)-1H-pyrazolo[3,4-d]pyrimidin-6-yl]phenyl}-3-methylurea]	2960 nM	3940 nM	434 nM	4.5 nM	5200 nM

Continued by falling IC50 (prostate line LNCap), values first:

IC50 (prostate line LNCap)	IC50 (PI3K [1])	IC50 (PI3K [2])	IC50 (Human mTOR (FLAG-TOR))	SMILES	IC50 (breast line MDA468)
470 nM	> 10000 nM	6620 nM	16.5 nM	COCC(COC)n1ncc2c(N3CC4CCC(C3)O4)nc(-c3ccc(NC(=O)OCCO)cc3)nc21 [Example 323, 2-hydroxyethyl (4-{1-[2-methoxy-1-(methoxymethyl)ethyl]-4-(8-oxa-3-azabicyclo[3.2.1]oct-3-yl)-1H-pyrazolo[3,4-d]pyrimidin-6-yl}phenyl)carbamate]	2000 nM
380 nM	5320 nM	606 nM	8.05 nM	CNC(=O)Nc1ccc(-c2nc(N3CC4CCC(C3)O4)c3cnn(C4CCC(N5CCCC5)CC4)c3n2)cc1 (centres unmarked) [Example 331, 1-methyl-3-{4-[4-(8-oxa-3-azabicyclo[3.2.1]oct-3-yl)-1-(4-pyrrolidin-1-ylcyclohexyl)-1H-pyrazolo[3,4-d]pyrimidin-6-yl]phenyl}urea]	1200 nM
370 nM	2760 nM	351 nM	2.45 nM	O=C(Nc1ccc(-c2nc(N3CC4CCC(C3)O4)c3cnn(C4CCC(N5CCCC5)CC4)c3n2)cc1)Nc1cccnc1 (centres unmarked) [Example 332, 1-{4-[4-(8-oxa-3-azabicyclo[3.2.1]oct-3-yl)-1-(4-pyrrolidin-1-ylcyclohexyl)-1H-pyrazolo[3,4-d]pyrimidin-6-yl]phenyl}-3-pyridin-3-ylurea]	900 nM
240 nM	> 10000 nM	628 nM	13.5 nM	CNC(=O)Nc1ccc(-c2nc(N3CC4CCC(C3)O4)c3cnn(C(COC)COC)c3n2)cc1 [Example 319, 1-(4-{1-[2-methoxy-1-(methoxymethyl)ethyl]-4-(8-oxa-3-azabicyclo[3.2.1]oct-3-yl)-1H-pyrazolo[3,4-d]pyrimidin-6-yl}phenyl)-3-methylurea]	900 nM
30 nM	9530 nM	1180 nM	2.65 nM	COCC(COC)n1ncc2c(N3CC4CCC(C3)O4)nc(-c3ccc(NC(=O)Nc4cccnc4)cc3)nc21 [Example 326, 1-(4-{1-[2-methoxy-1-(methoxymethyl)ethyl]-4-(8-oxa-3-azabicyclo[3.2.1]oct-3-yl)-1H-pyrazolo[3,4-d]pyrimidin-6-yl}phenyl)-3-pyridin-3-ylurea]	150 nM
8 nM	5200 nM	382 nM	3.4 nM	COCC(COC)n1ncc2c(N3CC4CCC(C3)O4)nc(-c3ccc(NC(=O)Nc4ccccc4)cc3)nc21 [Example 324, 1-(4-{1-[2-methoxy-1-(methoxymethyl)ethyl]-4-(8-oxa-3-azabicyclo[3.2.1]oct-3-yl)-1H-pyrazolo[3,4-d]pyrimidin-6-yl}phenyl)-3-phenylurea]	58 nM
3 nM	3490 nM	764 nM	3.75 nM	COCC(COC)n1ncc2c(N3CC4CCC(C3)O4)nc(-c3ccc(NC(=O)Nc4ccc(N5CCN(C)CC5)cc4)cc3)nc21 [Example 327, 1-(4-{1-[2-methoxy-1-(methoxymethyl)ethyl]-4-(8-oxa-3-azabicyclo[3.2.1]oct-3-yl)-1H-pyrazolo[3,4-d]pyrimidin-6-yl}phenyl)-3-[4-(4-methylpiperazin-1-yl)phenyl]urea]	50 nM
2 nM	4980 nM	601 nM	1.6 nM	COCC(COC)n1ncc2c(N3CC4CCC(C3)O4)nc(-c3ccc(NC(=O)Nc4ccncc4)cc3)nc21 [Example 325, 1-(4-{1-[2-methoxy-1-(methoxymethyl)ethyl]-4-(8-oxa-3-azabicyclo[3.2.1]oct-3-yl)-1H-pyrazolo[3,4-d]pyrimidin-6-yl}phenyl)-3-pyridin-4-ylurea]	19 nM
